Results: patent publication US5106835A, “Renin inhibitors” (American Cyanamid Company, priority 1990, dated 1992)

Target: T1, human kidney renin (Homo sapiens, UniProt P00797)
T1 construct: Human renin was prepared from human kidney; from tissue; host or cells: human kidney
T1 sequence (P00797 67-406): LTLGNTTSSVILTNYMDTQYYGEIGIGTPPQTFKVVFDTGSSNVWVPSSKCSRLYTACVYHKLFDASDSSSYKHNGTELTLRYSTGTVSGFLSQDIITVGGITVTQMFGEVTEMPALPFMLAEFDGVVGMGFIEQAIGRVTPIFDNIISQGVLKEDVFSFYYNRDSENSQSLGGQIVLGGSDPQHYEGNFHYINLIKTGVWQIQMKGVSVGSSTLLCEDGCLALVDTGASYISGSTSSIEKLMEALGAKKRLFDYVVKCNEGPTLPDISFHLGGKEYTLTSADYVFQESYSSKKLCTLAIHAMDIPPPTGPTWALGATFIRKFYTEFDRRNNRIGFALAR
Assay: Radioimmunoassay screen for renin inhibitors (angiotensin I generation, then quantitation by radioimmunoassay)
Type: biochemical
Conditions: for IC50: human kidney renin, purified human plasma angiotensinogen, maleate buffer pH 6.0, 1 hour at 37° C., read-out: IC50 Molar Concentration
Experimental: Radioimmunoassay Screen For Renin Inhibitors
The in vitro method for the screening of anti-renin compounds involves, first, angiotensin I generation, and second, the quantitation of the angiotensin I produced by radioimmunoassay.
The incubation medium consisted of 20 μl of purified human plasma angiotensinogen (1); 40 μl of human kidney renin (2); 5 μl of phenylmethylsulfonyl fluoride; 10 μl of disodium EDTA (10 mM); 10 μl of antirenin compound (5×10^-3, 5×10^-4, 5×10^-5) in dimethylformamide, or ethanol and a suitable amount of maleate buffer (77mM, pH 6.0) to make a final volume of 500 μl. The reaction mixture was incubated for 1 hour at 37° C. and the enzymatic reaction was stopped by placing the tube in ice-cold water. The angiotension I generated during the incubation was measured by a radioimmunoassay plasma renin activity kit (Clinical Assays, Inc.).
Radioimmunoassay Procedure
The incubation medium consisted of either 100 μl aliquots of the above reaction mixture or a standard amount of angiotensin I; 1000 μl of phosphate buffer (100 mM, pH7.6) and 100 μl of (^125 I)angiotensin in a gamma-coat, tube. After three hours of incubation at room temperature, the tubes were decanted, and the radioactivity of each tube was determined in a gamma counter. Duplicate determinations were performed for each incubation. The results were expressed in ng of angiotensin I generated per ml of generation medium per hour of incubation (ng/AI/ml/hr), and the % of inhibition was obtained by the following: % inhibition= [formula]
The results of this test on representative compounds of this invention appear in Table I, expressed as an IC50.
(1) The human plasma angiotensinogen derived from the blood of a person receiving oral contraceptive pills was purified by chromatography on a pepstatin-aminohexyl-agarose column.
(2) Human renin was prepared from human kidney.

| Structure (SMILES) | IC50 [nM] | further results |
| --- | --- | --- |
| CC(C)SC(NC(=O)[C@H](Cc1ccccc1)NC(=O)OCc1ccccc1)C(=O)N[C@@H](CC1CCCCC1)[C@@H](O)c1ccccn1 (stereo partly drawn) [N-[N-(phenylmethoxy)carbonyl-L-phenylalanyl-D-2-(isopropylth] [N-[N[(phenylmethoxy)carbonyl]-L-phenylalanyl-D-2-(isopropylthio)glycyl]-(S)2-amino-3-cyclohexyl-(R)1-(2-pyridinyl)-propan-1-ol] | 16000 | – |
| CC(C)OC(NC(=O)[C@H](Cc1ccccc1)NC(=O)OCc1ccccc1)C(=O)N[C@@H](CC1CCCCC1)[C@@H](O)c1nccs1 (stereo partly drawn) [N-[N-(Phenylmethoxy)carbonyl-L-phenylalanyl-L-2-(1-methyleth] [N-[N-[(Phenylmethoxy)carbonyl-L-phenylalanyl-L-2-(1-methylethoxy)glycyl]-(S)2-amino-b 3-cyclohexyl-(R)1-(2-thiazolyl)propan-1-ol] | 1 | – |
| CC(C)OC(NC(=O)[C@H](Cc1ccccc1)NC(=O)OCc1ccccc1)C(=O)N[C@@H](CC1CCCCC1)[C@@H](O)c1nccs1 (stereo partly drawn) [N-[N-(Phenylmethoxy)carbonyl-L-phenylalanyl-D-2-(1-methyleth] [N-[N-[(phenylmethoxy)carbonyl-L-phenylalanyl-D-2-(1-methylethoxy)glycyl](S)2-amino-3-cyclohexyl-(R)1-(2-thiazolyl)propan-1-ol] | 8800 | – |
| CC(C)COC(NC(=O)[C@H](Cc1ccccc1)NC(=O)OCc1ccccc1)C(=O)N[C@@H](CC1CCCCC1)[C@@H](O)c1nccs1 (stereo partly drawn) [N-[(Phenylmethoxy)carbonyl]-phenylalanyl-L-2-(2-methylpropox] [N-[(Phenylmethoxy)carbonyl]-L-phenylalanyl-L-2-(2-methylpropoxy)glycyl]-(1R,2S)-2-amino-3-cyclohexyl-1-(2-thiazolyl)propan-1-ol] | 87 | – |
| CC(C)C[C@H](NC(=O)C(NC(=O)[C@H](Cc1ccccc1)NC(=O)OCc1ccccc1)OC(C)C)[C@@H](O)c1nccs1 (stereo partly drawn) [N-[N-(Benzyloxycarbonyl)-L-phenylalanyl-L-2-(1-methylethoxy)glycyl]-(S)2-amino-4-methyl-(R)1-(2-thiazolyl)pentan-1-ol] | 280 | – |
| CC(C)CO[C@H](NC(=O)[C@H](Cc1ccccc1)NC(=O)OCc1ccccc1)C(=O)N[C@@H](Cc1ccccc1)[C@@H](O)c1nccs1 [N-[N-(Benzyloxycarbonyl)-L-phenylalanyl-L-2-(2-methylpropxy)glycyl]-(S)2-amino-3-phenyl-(R)1-(2-thiazolyl)propan-1-ol] | 470 | % Renin Inhibition (Molar Concentration 1 × 10^-4): 85.0%; % Renin Inhibition (Molar Concentration 1 × 10^-5): 84.6%; % Renin Inhibition (Molar Concentration 1 × 10^-6): 76.2% |
| CC(C)C[C@H](NC(=O)[C@H](Cc1ccccc1)NC(=O)OC(C)(C)C)C(=O)N[C@@H](CC1CCCCC1)[C@@H](O)c1ccco1 [N-[N-tert-Butoxycarbonyl)-L-phenylalanyl-L-leucyl]-(S)2-amino-3-cyclohexyl-(R)1-(2-furanyl)propan-1-ol] | 24 | – |
| CC(C)COC(NC(=O)[C@H](Cc1ccccc1)NC(=O)OCc1ccccc1)C(=O)N[C@@H](CC1CCCCC1)[C@@H](O)c1nccs1 (stereo partly drawn) [N-[Phenylmethoxy)carbonyl]-L-phenylalanyl-D-2-(2-methylpropo] [N-[(Phenylmethoxy)carbonyl]-L-phenylalanyl-D 2-(2-methylpropoxy)glycyl-(1R,2S)-2-amino-3-cyclohexyl-1-(2-thiazolyl)propan-1-ol] | 11000 | – |
| CC(C)SC(NC(=O)[C@H](Cc1ccccc1)NC(=O)OCc1ccccc1)C(=O)N[C@@H](CC1CCCCC1)[C@@H](O)c1ccccn1 (stereo partly drawn) [N-[N-(Phenylmethoxy)carbonyl-L-phenylalanyl-L-2-(isopropylth] [N-[N-[(Phenylmethoxy)carbonyl]-L-phenylalanyl-L-2-(isopropylthio)glycyl]-(S)2-amino-3-cyclohexyl-(R)1-(2-pyridinyl)propan-1-ol] | 46 | – |
| CC(C)OC(NC(=O)[C@H](Cc1ccccc1)NC(=O)OCc1ccccc1)C(=O)N[C@@H](CC1CCCCC1)[C@@H](O)c1ccccn1 (stereo partly drawn) [N-[N-[ (Phenylmethoxy)carbonyl]-L-phenylalanyl-L-2-(1-methylethoxy)glycyl]-(S)2-amino-3-cyclohexyl-(R)1-(2-pyridinyl)propan-1-ol] | 24 | – |
| CC(C)C[C@H](NC(=O)[C@H](Cc1ccccc1)NC(=O)OC(C)(C)C)C(=O)N[C@@H](CC(C)C)[C@@H](O)c1cccs1 [N-[N-(tert-Butoxycarbonyl)-L-phenylalanyl-L-leucyl]-(S)2-amino-4-methyl-(R)1-(2-thienyl)-pentan-1-ol] | 4500 | – |
| CC(C)COC(NC(=O)[C@H](Cc1ccccc1)NC(=O)OCc1ccccc1)C(=O)N[C@H](C=O)Cc1ccccc1 (stereo partly drawn) [N-[(Phenylmethoxy)carbonyl]-L-phenylalanyl-N-[(S)-1-formyl-2-phenylethyl]-L-2-(2-methylpropoxy)glycinamide] | – | % Renin Inhibition (Molar Concentration 1 × 10^-4): 66%; % Renin Inhibition (Molar Concentration 1 × 10^-5): 59% |
| CC(C)C[C@H](NC(=O)C(NC(=O)[C@H](Cc1ccccc1)NC(=O)OCc1ccccc1)OC1CCCCC1)[C@@H](O)c1nccs1 (stereo partly drawn) [N-[N-(Benzyloxycarbonyl)-L-phenylalanyl-L-2-(cyclohexyloxy)glycyl]-(S)2-amino-4-methyl-(R)1-(2-thiazolyl)pentan-1-ol] | 8500 | – |
| CC(C)COC(NC(=O)OCc1ccccc1)C(=O)N[C@@H](CC1CCCCC1)[C@@H](O)c1ccccn1 (stereo partly drawn) [N-[N-(Phenylmethoxy)carbonyl-L-2-(2-methylpropoxy)glycyl]-(S)2-amino-3-cyclohexyl(R)1-(2-pyridinyl)propan-1-ol] | 160 | – |
| CC(C)COC(NC(=O)[C@H](Cc1ccccc1)NC(=O)OCc1ccccc1)C(=O)N[C@@H](CC(C)C)[C@@H](O)c1ncnn1C (stereo partly drawn) [N-[N-(Benzyloxycarbonyl)-L-phenylalanyl-L-2-(2-methylpropoxy)glycl]-(S)2-amino-4-methyl(R)1-(1-methyl-1H-1,2,4-triazol-5-yl)pentan-1-ol] | – | % Renin Inhibition (Molar Concentration 1 × 10^-4): 32% |
| CC(C)C[C@H](NC(=O)C(NC(=O)[C@H](Cc1ccccc1)NC(=O)OCc1ccccc1)SC(C)C)[C@@H](O)c1nccs1 (stereo partly drawn) [N-[N-[(Phenylmethoxy)carbonyl-L-phenylalanyl-L-2-(isopropylthio)glycyl]-(S)2-amino-4-methyl-(R)1-(2-thiazaolyl)pentan-1-ol] | 14000 | – |
| CC(C)C[C@H](NC(=O)C(NC(=O)[C@H](Cc1ccccc1)NC(=O)OCc1ccccc1)SC(C)C)[C@@H](O)c1nccs1 (stereo partly drawn) [N-[N-[(phenylmethoxy)carbonyl]-L-phenylalanyl-D-2-(isopropylthio)glycyl]-(S)2-amino-4-methyl-(R)1-(2-thiazolyl)pentan-1-ol] | – | % Renin Inhibition (Molar Concentration 1 × 10^-4): 25% |
| CC(C)CO[C@H](NC(=O)[C@H](Cc1ccccc1)NC(=O)OCc1ccccc1)C(=O)N[C@H](C=O)CC(C)C [N-[(Phenylmethoxy)carbonyl]-L-phenylalanyl-N-[(S)-1-formyl-3-methylbutyl]-L-2-(2-methylpropoxy)glycinamide] | – | % Renin Inhibition (Molar Concentration 1 × 10^-4): 70%; % Renin Inhibition (Molar Concentration 1 × 10^-5): 50% |
| CC(C)C[C@@H](C=O)NC(=O)C(NC(=O)[C@H](Cc1ccccc1)NC(=O)OCc1ccccc1)OC(C)C (stereo partly drawn) [N-[(Phenylmethoxy)carbonyl]-L-phenylalanyl-N-(S)-1-formyl-3-methylbutyl]-L-2-(1-methylethoxy)glycinamide] | 10000 | – |
| CC(C)CO[C@@H](NC(=O)[C@H](Cc1ccccc1)NC(=O)OCc1ccccc1)C(=O)N[C@@H](Cc1ccccc1)[C@@H](O)c1nccs1 [N-[N-(Benzyloxycarbonyl)-L-phenylalanyl-D-2-(2-methylpropoxy)glycyl]-(S)2-amino-3-phenyl-(R)1-(2-thiazoly)propan-1-ol] | – | % Renin Inhibition (Molar Concentration 1 × 10^-4): 74.6%; % Renin Inhibition (Molar Concentration 1 × 10^-5): 69.2%; % Renin Inhibition (Molar Concentration 1 × 10^-6): 41.0% |
| CC(C)CO[C@@H](NC(=O)[C@H](Cc1ccccc1)NC(=O)OCc1ccccc1)C(=O)N[C@@H](CC1CCCCC1)[C@@H](O)c1ccccn1 [N-[N-(Phenylmethoxy)carbonyl-L-phenylalanyl-D-2-(2-methylpropoxy)glycyl]-(S)2-amino-3-cyclohexyl(R)1-(2-pyridinyl)propan-1-ol] | 29000 | – |
| CC(C)O[C@@H](NC(=O)[C@H](Cc1ccccc1)NC(=O)OCc1ccccc1)C(=O)N[C@@H](CC1CCCCC1)[C@@H](O)c1ccccn1 [N-[N-[(Phenylmethoxy)carbonyl]-L-phenylalanyl-D-2-(1-methylethoxy)glycyl]-(S)2-amino-3-cyclohexyl-(R)1-(2-pyridinyl)propan-1-ol] | 1000 | – |
